Assay results as given in the supplement of paper PMC10721915.

Legend:
Test in all cases: relative cell growth vs untreated control (GI, NCI-DTP normalisation with time-zero) (fraction of control growth); higher = more growth / less inhibition
Details in all cases: concentration of partner 0 M, treatment time: 120 h
A549 = test system: A549
Description: (§1)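 Cancer cell lines in 96-well plates were treated 48 h after seeding with M4076 (ATM inhibitor) and berzosertib (ATR inhibitor), alone or mixed, in 4-fold dilutions for 120 h. Protein was read by sulforhodamine B staining, background-subtracted and normalised NCI-DTP style to untreated control growth. Rows with one concentration equal to 0 are monotherapy.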

BXPC3 = test system: BXPC3
Description: as §1

DU145 = test system: DU145
Description: as §1

HT1080 = test system: HT1080
Description: as §1

HT29 = test system: HT29
Description: as §1

MDAMB436 = test system: MDAMB436
Description: as §1

WSUNHL = test system: WSUNHL
Description: as §1

CNCc1ccc(-c2cc(-c3nc(-c4ccc(S(=O)(=O)C(C)C)cc4)cnc3N)on2)cc1 [berzosertib] + COc1cc2ncc3c(c2cc1-c1cn(C)nc1C)n(-c1c(F)cncc1OC)c(=O)n3C [M4076]
relative cell growth
Details | A549 | BXPC3 | DU145 | HT29 | HT1080 | MDAMB436 | WSUNHL
concentration of first compound 0.0195 µM | 1.22 | 1.18 | 1.08 | 1.22 | 2.08 | 1.03 | 1.44
concentration of first compound 0.0781 µM | 0.999 | 1.14 | 1.13 | 0.613 | 2.13 | 1.13 | 1.68
concentration of first compound 0.2 µM | 0.464 | 0.588 | 1.03 | 0.113 | 0.626 | 0.673 | 1.18
concentration of first compound 0.313 µM | 0.294 | 0.34 | 0.825 | -0.0285 | 0.0933 | 0.386 | 0.779
concentration of first compound 1.25 µM | 0.0316 | -0.112 | -0.0103 | -0.0598 | -0.162 | 0.0232 | -0.0504
concentration of first compound 5 µM | -0.00795 | -0.0824 | -0.0587 | -0.0555 | -0.228 | -0.0352 | -0.0908
